Reference: article PMC8533642 (Journal of medicinal chemistry, 2021)
Where two headings read alike, the source gives them in different places. Blank lines part the entries; values can stand above or below the compound they belong to. Square brackets hold non-standard residues; d marks the D form. Peptide text beside a SMILES is read from it. Phe(4-I) = N[C@@H](Cc1ccc(I)cc1)C(=O)O; dPhe(4-I) = N[C@H](Cc1ccc(I)cc1)C(=O)O; 2Nal = N[C@@H](Cc1ccc2ccccc2c1)C(=O)O; d2Nal = N[C@H](Cc1ccc2ccccc2c1)C(=O)O

Key:
MC5R = details: cited from earlier work
hMC3R = details: cited from earlier work
hMC4R = details: read-out: hMC4R IC50; tripeptide SAR study; cited from earlier work
hMC1R = details: cited from earlier work
human (h)MC4R = details: cited from earlier work
mMC3R [1] = molecular target: T1, mMC3R (Mus musculus, UniProt P33033); test: AlphaScreen cAMP agonist assay, HEK293 cells stably expressing mMC3R; type: cell-based; details: at 100 μM
T1 sequence (P33033 whole entry): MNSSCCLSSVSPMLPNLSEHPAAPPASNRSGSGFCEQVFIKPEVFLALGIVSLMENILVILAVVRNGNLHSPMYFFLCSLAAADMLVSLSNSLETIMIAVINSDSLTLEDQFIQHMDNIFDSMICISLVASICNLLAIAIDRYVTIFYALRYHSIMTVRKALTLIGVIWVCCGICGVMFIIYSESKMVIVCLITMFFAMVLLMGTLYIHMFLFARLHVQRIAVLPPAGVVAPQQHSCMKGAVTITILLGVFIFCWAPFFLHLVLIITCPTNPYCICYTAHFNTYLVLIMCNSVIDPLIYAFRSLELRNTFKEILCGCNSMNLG

mMC5R = mMC5R (Mus musculus, UniProt P41149); test: AlphaScreen cAMP agonist assay, HEK293 cells stably expressing mMC5R; type: cell-based; details: for mMC5R percent maximal stimulatory response (compared to NDP-MSH): at 100 μM
Sequence of mMC5R (P41149 whole entry): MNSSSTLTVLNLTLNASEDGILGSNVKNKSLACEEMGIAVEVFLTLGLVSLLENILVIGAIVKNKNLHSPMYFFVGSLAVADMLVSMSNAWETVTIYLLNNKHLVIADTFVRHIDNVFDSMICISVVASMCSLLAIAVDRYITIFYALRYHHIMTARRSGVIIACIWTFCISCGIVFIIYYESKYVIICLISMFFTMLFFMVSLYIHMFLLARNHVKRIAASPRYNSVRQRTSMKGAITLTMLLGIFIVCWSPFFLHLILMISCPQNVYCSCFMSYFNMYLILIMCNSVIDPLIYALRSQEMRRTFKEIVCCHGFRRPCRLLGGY

mMC4R [2] = molecular target: T2, mMC4R (Mus musculus, UniProt P56450); details: mMC4R versus mMC3R antagonist potency
T2 sequence (P56450 whole entry): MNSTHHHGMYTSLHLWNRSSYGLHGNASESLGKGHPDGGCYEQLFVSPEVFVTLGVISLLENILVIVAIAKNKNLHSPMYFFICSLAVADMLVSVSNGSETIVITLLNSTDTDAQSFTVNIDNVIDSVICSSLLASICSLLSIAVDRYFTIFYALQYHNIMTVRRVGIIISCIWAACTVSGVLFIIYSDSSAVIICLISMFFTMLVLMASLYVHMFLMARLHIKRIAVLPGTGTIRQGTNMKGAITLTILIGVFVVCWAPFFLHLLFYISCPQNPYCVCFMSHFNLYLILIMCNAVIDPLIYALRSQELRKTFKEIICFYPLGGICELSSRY

[3] = tested on: mouse B16-F10 melanoma cells; details: 30 and 100 μM, 100 nM α-MSH, 72 h; cited from earlier work
[4] = compared to a control formulation lacking glycinamide; cited from earlier work
mMC1R = mMC1R (Mus musculus, UniProt Q01727); test: AlphaScreen cAMP agonist assay, HEK293 cells stably expressing mMC1R; type: cell-based; details: for mMC1R agonist activity in words: full agonist = 90% of maximal NDP-MSH signal; for mMC1R partial agonist percentage of receptor activation relative to NDP-MSH: partial agonists
Sequence of mMC1R (Q01727 whole entry): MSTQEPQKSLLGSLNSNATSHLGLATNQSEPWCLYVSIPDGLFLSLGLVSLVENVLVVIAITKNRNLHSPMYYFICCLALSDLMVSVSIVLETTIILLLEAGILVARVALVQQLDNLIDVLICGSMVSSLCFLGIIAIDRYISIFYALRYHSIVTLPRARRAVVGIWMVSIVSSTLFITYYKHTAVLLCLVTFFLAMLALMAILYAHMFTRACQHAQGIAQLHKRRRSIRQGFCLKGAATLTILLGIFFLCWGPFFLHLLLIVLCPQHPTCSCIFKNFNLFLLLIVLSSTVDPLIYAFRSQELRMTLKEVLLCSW

mMC3R [5] = molecular target: T1, mMC3R; details: earlier report; cited from earlier work
mMC4R [6] = molecular target: T2, mMC4R; details: earlier report; cited from earlier work
mMC4R [7] = molecular target: T2, mMC4R; details: cited from earlier work
mMC4R [8] = molecular target: T2, mMC4R; details: miniAGRP(87–120), β-galactosidase reporter gene assay; cited from earlier work
mMC3R [9] = molecular target: T1, mMC3R; details: miniAGRP(87–120), β-galactosidase reporter gene assay; cited from earlier work
MC1R = details: at 2 μM; cited from earlier work
MC3R = details: at 2 μM; cited from earlier work
MC4R = details: at 2 μM; cited from earlier work
hMC5R = details: cited from earlier work
[10] = Solubility in solvents compatible with RP-HPLC

Compound: Ac-Oic-DBip-Pip-Trp-NH2
EC50 (MC5R; read-out: MC5R agonist potency): 1200 nM

Compound: Ac-DNal(2’)-Arg-Nal(2’) [MCL0020]
binding affinity at hMC3R (hMC3R): 1115 nM
IC50 (hMC4R): 15.4 nM
concentration up to which radiolabeled NDP-MSH was not displaced at hMC1R (hMC1R): > 10 µM
binding affinity at hMC4R (human (h)MC4R): 11.63 nM

mMC3R percent maximal stimulatory response (compared to NDP-MSH) (mMC3R [1]): 30% @100μM
mMC5R percent maximal stimulatory response (compared to NDP-MSH) (mMC5R): 25% @100μM
Compound: CC(=O)N[C@H](Cc1ccc2ccccc2c1)C(=O)N[C@@H](CCCNC(=N)N)C(=O)N[C@@H](Cc1ccc2ccccc2c1)C(=O)N[C@H](Cc1ccc2ccccc2c1)C(N)=O [Peptide 23, Ac-DNal(2’)-Arg-Nal(2’)-DNal(2’)-NH2] (Ac-[d2Nal]R[2Nal][d2Nal]-NH2)

Compound: CC(=O)N[C@H](Cc1ccc2ccccc2c1)C(=O)N[C@@H](CCCNC(=N)N)C(=O)N[C@@H](Cc1c[nH]c2ccccc12)C(=O)N[C@H](CCCCN)C(N)=O [Peptide 16, Ac-DNal(2’)-Arg-Trp-DLys-NH2] (Ac-[d2Nal]RW[dK]-NH2)
selectivity for the mMC4R over the mMC3R (antagonist) (mMC4R [2]): more than 150 fold

Compound: NCC(N)=O [glycinamide]
effect on α-MSH-stimulated melanin production [3]: possessed anti-melanogenic activity
effect on facial skin pigmentation [4]: decreased melanin index and skin pigmentation

mMC1R agonist activity in words (mMC1R): partially stimulate
mMC5R EC50 (mMC5R; agonist, >100,000 = no agonist activity up to 100 μM): did not possess agonist activity
Compound: CC(=O)N[C@@H](Cc1ccc(I)cc1)C(=O)N[C@@H](Cc1ccc2ccccc2c1)C(=O)N[C@@H](Cc1ccc(I)cc1)C(=O)N[C@@H](CCCNC(=N)N)C(N)=O [Peptide 49, Ac-Phe(pI)-Nal(2’)-Phe(pI)-Arg-NH2] (Ac-[Phe(4-I)][2Nal][Phe(4-I)]R-NH2)

mMC1R agonist activity in words (mMC1R): full agonist activity
Compound: CC(=O)N[C@H](Cc1ccc2ccccc2c1)C(=O)N[C@@H](CCCNC(=N)N)C(=O)N[C@H](Cc1ccc(I)cc1)C(=O)N[C@H](Cc1ccc2ccccc2c1)C(N)=O [Peptide 20, Ac-DNal(2’)-Arg-DPhe(pI)-DNal(2’)-NH2] (Ac-[d2Nal]R[dPhe(4-I)][d2Nal]-NH2)
mMC3R pA2, previously reported (mMC3R [5]): 5.6
mMC4R pA2, previously reported (mMC4R [6]): 5.9
mMC4R partial agonist efficacy, % of the maximal NDP-MSH signal, previously reported (mMC4R [7]; earlier report): 37%

Compound: miniAGRP(87–120): truncated agouti-related protein melanocortin receptor antagonist (CVRLHESCLGQQVPCCDPCATCYCRFFNAFCYCR; UniProt O00253 87-120, looked up, fragment)
mMC4R pA2 (mMC4R [8]): 8.5±0.1
mMC3R pA2 (mMC3R [9]): 8.1±0.1

Compound: Ac-Nle-c[Asp-Oic-DBip-Pip-Trp-Lys]-NH2
MC1R activation (MC1R): up to 40%
MC3R activation (MC3R): up to 40%
EC50 (MC5R; read-out: concentration activating the MC5R): 0.99 nM
MC4R activation (MC4R): up to 40%

Compound: H-RLWG-NH2
effect on α-MSH-stimulated melanin production [3]: inhibited α-MSH-stimulated melanin production

Compound: CC(=O)N[C@H](Cc1ccc2ccccc2c1)C(=O)N[C@@H](CCCNC(=N)N)C(=O)N[C@H](Cc1ccc2ccccc2c1)C(=O)N[C@H](Cc1ccc2ccccc2c1)C(N)=O [Peptide 14, Ac-DNal(2’)-Arg-DNal(2’)-DNal(2’)-NH2] (Ac-[d2Nal]R[d2Nal][d2Nal]-NH2)
mMC1R partial agonist percentage of receptor activation relative to NDP-MSH (mMC1R): 85 % NDP
mMC3R percent maximal stimulatory response (compared to NDP-MSH) (mMC3R [1]): 50% @100μM
mMC5R percent maximal stimulatory response (compared to NDP-MSH) (mMC5R): 20% @100μM

Compound: Ac-Nle-c[Asp-Pro-DNal(2’)-Arg-Trp-Lys]-NH2 [PG901]
hMC5R agonist potency in words (hMC5R): sub-nanomolar agonist potency

Compound: Ac-Ser-Tyr-Ser-Nle-Glu-Oic-DBip-Pip-Trp-Gly-Lys-Pro-Val-NH2 (WGKPV; N-terminal Ac-Ser-Tyr-Ser-Nle-Glu-Oic-DBip-Pip; C-terminal amide; printed: Trp-Gly-Lys-Pro-Val-)
MC5R agonist potency in words (MC5R): sub-nanomolar MC5R agonist

Compound: Ac-DNal(2’)-Arg-DNal(2’)
IC50 (hMC4R): 36.5 nM

Compound: Ac-His-DPhe-Arg-Trp-NH2 [reference compound]
mMC4R agonist potency in words (mMC4R [7]): nanomolar agonist potency

mMC1R agonist activity in words (mMC1R): full agonist activity
mMC3R percent maximal stimulatory response (compared to NDP-MSH) (mMC3R [1]): 40% @100μM
mMC5R percent maximal stimulatory response (compared to NDP-MSH) (mMC5R): 65% @100μM
Compound: CC(=O)N[C@H](Cc1ccc(I)cc1)C(=O)N[C@@H](CCCNC(=N)N)C(=O)N[C@H](Cc1ccc(I)cc1)C(=O)N[C@H](Cc1ccc2ccccc2c1)C(N)=O [Peptide 44, Ac-DPhe(pI)-Arg-DPhe(pI)-DNal(2’)-NH2] (Ac-[dPhe(4-I)]R[dPhe(4-I)][d2Nal]-NH2)

Compound: H-RFWG-NH2
effect on α-MSH-stimulated melanin production [3]: inhibited α-MSH-stimulated melanin production

Compound: CC(=O)N[C@H](Cc1ccc2ccccc2c1)C(=O)N[C@@H](CCCNC(=N)N)C(=O)N[C@H](Cc1ccc2ccccc2c1)C(=O)N[C@H](CCCCN)C(N)=O [Peptide 13, Ac-DNal(2’)-Arg-DNal(2’)-DLys-NH2] (Ac-[d2Nal]R[d2Nal][dK]-NH2)
selectivity for the mMC4R over the mMC3R (antagonist) (mMC4R [2]): more than 150 fold
mMC1R partial agonist percentage of receptor activation relative to NDP-MSH (mMC1R): 30 % NDP

mMC3R percent maximal stimulatory response (compared to NDP-MSH) (mMC3R [1]): 45% @100μM
mMC5R percent maximal stimulatory response (compared to NDP-MSH) (mMC5R): 20% @100μM
Compound: CC(=O)N[C@H](Cc1ccc(I)cc1)C(=O)N[C@@H](CCCNC(=N)N)C(=O)N[C@H](Cc1ccc2ccccc2c1)C(=O)N[C@H](Cc1ccc2ccccc2c1)C(N)=O [Peptide 38, Ac-DPhe(pI)-Arg-DNal(2’)-DNal(2’)-NH2] (Ac-[dPhe(4-I)]R[d2Nal][d2Nal]-NH2)

Compound: CC(=O)N[C@H](Cc1ccc2ccccc2c1)C(=O)N[C@@H](CCCNC(=N)N)C(=O)N[C@H](Cc1ccc2ccccc2c1)C(=O)N[C@@H](CCCNC(=N)N)C(N)=O [Peptide 15, Ac-DNal(2’)-Arg-DNal(2’)-Arg-NH2] (Ac-[d2Nal]R[d2Nal]R-NH2)
selectivity for the mMC4R over the mMC3R (antagonist) (mMC4R [2]): more than 150 fold
mMC1R partial agonist percentage of receptor activation relative to NDP-MSH (mMC1R): 60 % NDP

Compound: CC(=O)N[C@H](Cc1ccc2ccccc2c1)C(=O)N[C@H](Cc1ccc2ccccc2c1)C(=O)N[C@H](Cc1ccc2ccccc2c1)C(=O)N[C@H](Cc1ccc2ccccc2c1)C(N)=O [Ac-DNal(2’)-DNal(2’)-DNal(2’)-DNal(2’)-NH2] (Ac-[d2Nal][d2Nal][d2Nal][d2Nal]-NH2)
solubility in solvents compatible with RP-HPLC [10]: insoluble
